Assay results from patent US11427553B2, “Dihydrooxadiazinones” (Bayer Aktiengesellschaft, priority 2017, dated 2022).

Tests used:
[1] = tested on: SK-MEL-3 cells; experiment: Assay 1 cell proliferation measurement (CTG, 72 h), SK-MEL-3; format: cell-based, human; conditions: Homo sapiens, SK-MEL3; Assay 1, 72 h, Cell Titer Glo; read-out: SK-MEL-3 IC50 [nM] (melanoma)
How it was run: (§1)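 CTG luminescence readout after 72 h compound exposure at 37 °C; 10-point 2.5-fold dilutions from 100 nM max final; DMSO 0.3% vehicle. IC50 from 4-parameter fit, normalised to 0 h plate (max inhibition) and DMSO (min inhibition).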

[2] = target: human full length PDE3A (Homo sapiens (Human), UniProt Q14432); experiment: Assay 4 PDE3A enzyme inhibition (3H-cAMP SPA); format: biochemical; conditions: Sf9 cell extract
How it was run: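 Enzyme: Sf9 extract with overexpressed full-length PDE3A; substrate [8-3H]cAMP, 0.025 μCi/well; 60 min, room temperature, Tris/HCl pH 7.5 buffer with MgCl2, EDTA, BSA.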

[3] = tested on: HeLa cells; experiment: Assay 1 cell proliferation measurement (CTG, 72 h), HeLa; format: cell-based, human; conditions: Homo sapiens, HeLa; Assay 1, 72 h, Cell Titer Glo; read-out: HeLa IC50 [nM] (Cervical cancer)
How it was run: as §1

[4] = tested on: NCI-H1734 cells; experiment: Assay 1 cell proliferation measurement, NCI-H1734; format: cell-based; conditions: Homo sapiens, Lung, read-out: Anti-proliferation IC50 [nM] NCI-H1734
[5] = tested on: H4 cells; experiment: Assay 1 cell proliferation measurement, H4; format: cell-based; conditions: Homo sapiens; Astrocytoma; read-out: Anti-proliferation IC50 [nM] H4
[6] = tested on: IGR37 cells; experiment: Assay 1 cell proliferation measurement (CTG, 72 h), IGR37; format: cell-based; conditions: Homo sapiens, IGR-37, Cell Titer Glo, read-out: IGR37 IC50 [nM] (melanoma)
[7] = target: human full length PDE3B (Homo sapiens (Human), UniProt Q13370); experiment: Assay 5 PDE3B enzyme inhibition (3H-cAMP SPA); format: biochemical; conditions: Sf9 cell extract
How it was run: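 Sf9 cell extract expressing human full-length PDE3B, diluted for linear kinetics (<70% substrate use), in 50 mM Tris/HCl pH 7.5, 8.3 mM MgCl2, 1.7 mM EDTA. [8-3H]cAMP substrate, 60 min at room temperature; stopped with yttrium SPA beads, scintillation counting. IC50 from sigmoidal activity vs log concentration curves.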

[8] = tested on: HMCB cells; experiment: Assay 1 cell proliferation measurement, HMCB; format: cell-based; conditions: Homo sapiens, Melanoma, read-out: Anti-proliferation IC50 [nM] HMCB
[9] = tested on: IGR-1 cells; experiment: Assay 1 cell proliferation measurement, IGR-1; format: cell-based; conditions: Homo sapiens, Melanoma, read-out: Anti-proliferation IC50 [nM] IGR-1
[10] = Assay 6 in vitro metabolic stability in cryopreserved human hepatocytes (CL, Fmax); format: in vitro ADME; conditions: 1 μM test compound; for Clblood: hepatic in vivo blood clearance calculated (well-stirred) from half-life in cryopreserved human hepatocytes; for Fmax: maximal oral bioavailability calculated from half-life in cryopreserved human hepatocytes
Procedure: Assay 6 Method for Human Cryo Hepatocytes:
Investigation of In Vitro Metabolic Stability in Cryopreserved Human Hepatocytes (Including Calculation of Hepatic In Vivo Blood Clearance (CL) and Maximal Oral Bioavailability (Fmax))
Cryopreserved Hepatocytes (e.g. purchased from Celsis InVitroTechnologies) were briefly thawed, washed with 45 mL pre-warmed in in vitro GRO HT medium and centrifuged for 5 min at 50×g. The cell pellet was resuspended in 5 ml of Krebs-Henseleit […] (KHB). Cell viability was determined by trypan blue exclusion.
For the metabolic stability assay liver cells were distributed in WME containing 5% FCS to glass vials at a density of 1.0×10^6 vital cells/ml. The test compound was added to a final concentration of 1 μM. During incubation, the hepatocyte suspensions were continuously shaken at 580 rpm and aliquots were taken at 2, 8, 16, 30, 45 and 90 min, to which equal volumes of cold methanol were immediately added. Samples were frozen at −20° C. over night, after subsequently centrifuged for 15 minutes at 3000 rpm and the supernatant was analyzed with an Agilent 1290 HPLC-system with LCMS/MS detection.
The half-life of a test compound was determined from the concentration-time plot. From the half-life the intrinsic clearances were calculated. Together with the additional parameters liver blood flow, amount of liver cells in vivo and in vitro. The hepatic in vivo blood clearance (CL) and the maximal oral bioavailability (Fmax) was calculated.

[11] = tested on: HEL 92.1.7 cells; experiment: Assay 1 cell proliferation measurement, HEL 92.1.7; format: cell-based; conditions: Homo sapiens, Erythroleukemia, read-out: Anti-proliferation IC50 [nM] HEL 92.1.7
[12] = tested on: PA-1 cells; experiment: Assay 1 cell proliferation measurement, PA-1; format: cell-based; conditions: Homo sapiens, Ovarian teratocarcinoma, read-out: Anti-proliferation IC50 [nM] PA-1
[13] = tested on: A-2058 cells; experiment: Assay 1 cell proliferation measurement, A-2058; format: cell-based; conditions: Homo sapiens, A2058; Melanoma; read-out: Anti-proliferation IC50 [nM] A-2058
[14] = tested on: DBTRG-05-MG cells; experiment: Assay 1 cell proliferation measurement, DBTRG-05-MG; format: cell-based; conditions: Homo sapiens, Glioblastoma, read-out: Anti-proliferation IC50 [nM] DBTRG-05-MG
[15] = tested on: DK-MG cells; experiment: Assay 1 cell proliferation measurement, DK-MG; format: cell-based; conditions: Homo sapiens; Glioblastoma; read-out: Anti-proliferation IC50 [nM] DK-MG
[16] = tested on: CHL-1 cells; experiment: Assay 1 cell proliferation measurement, CHL-1; format: cell-based; conditions: Homo sapiens, Melanoma, read-out: Anti-proliferation IC50 [nM] CHL-1
[17] = tested on: Hs 578T cells; experiment: Assay 1 cell proliferation measurement, Hs 578T; format: cell-based; conditions: Homo sapiens, Breast, read-out: Anti-proliferation IC50 [nM] Hs 578T

human full length PDE3A, sequence (Q14432 whole entry): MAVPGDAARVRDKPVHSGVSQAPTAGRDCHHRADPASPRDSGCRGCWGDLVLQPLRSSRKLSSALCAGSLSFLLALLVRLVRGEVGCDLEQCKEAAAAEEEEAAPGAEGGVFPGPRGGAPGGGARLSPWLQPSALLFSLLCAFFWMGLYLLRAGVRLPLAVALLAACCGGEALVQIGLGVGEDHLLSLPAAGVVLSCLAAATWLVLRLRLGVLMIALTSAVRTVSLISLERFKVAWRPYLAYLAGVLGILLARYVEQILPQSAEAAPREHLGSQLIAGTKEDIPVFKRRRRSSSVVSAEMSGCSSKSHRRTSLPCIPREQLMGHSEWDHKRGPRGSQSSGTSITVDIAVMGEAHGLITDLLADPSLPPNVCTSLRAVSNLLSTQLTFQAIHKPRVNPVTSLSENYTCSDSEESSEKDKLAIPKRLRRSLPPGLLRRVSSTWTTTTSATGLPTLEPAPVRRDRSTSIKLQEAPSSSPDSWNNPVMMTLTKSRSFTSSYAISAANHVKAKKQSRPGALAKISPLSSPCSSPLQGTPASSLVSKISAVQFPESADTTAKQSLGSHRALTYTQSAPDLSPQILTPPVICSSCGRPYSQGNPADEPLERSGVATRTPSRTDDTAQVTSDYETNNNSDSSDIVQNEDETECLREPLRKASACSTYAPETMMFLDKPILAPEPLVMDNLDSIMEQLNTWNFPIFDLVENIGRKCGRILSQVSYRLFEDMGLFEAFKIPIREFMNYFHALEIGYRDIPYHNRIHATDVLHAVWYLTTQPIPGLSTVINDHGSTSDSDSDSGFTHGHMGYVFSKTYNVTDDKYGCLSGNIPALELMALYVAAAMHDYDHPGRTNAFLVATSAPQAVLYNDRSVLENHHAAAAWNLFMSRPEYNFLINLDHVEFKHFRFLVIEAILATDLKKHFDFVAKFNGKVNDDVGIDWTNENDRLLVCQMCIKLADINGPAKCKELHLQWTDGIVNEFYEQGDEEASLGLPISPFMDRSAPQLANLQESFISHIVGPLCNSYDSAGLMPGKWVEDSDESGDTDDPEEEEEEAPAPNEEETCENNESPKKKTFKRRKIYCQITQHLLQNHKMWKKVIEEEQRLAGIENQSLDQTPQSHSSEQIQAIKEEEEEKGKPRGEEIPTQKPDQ
human full length PDE3B, sequence (Q13370 whole entry): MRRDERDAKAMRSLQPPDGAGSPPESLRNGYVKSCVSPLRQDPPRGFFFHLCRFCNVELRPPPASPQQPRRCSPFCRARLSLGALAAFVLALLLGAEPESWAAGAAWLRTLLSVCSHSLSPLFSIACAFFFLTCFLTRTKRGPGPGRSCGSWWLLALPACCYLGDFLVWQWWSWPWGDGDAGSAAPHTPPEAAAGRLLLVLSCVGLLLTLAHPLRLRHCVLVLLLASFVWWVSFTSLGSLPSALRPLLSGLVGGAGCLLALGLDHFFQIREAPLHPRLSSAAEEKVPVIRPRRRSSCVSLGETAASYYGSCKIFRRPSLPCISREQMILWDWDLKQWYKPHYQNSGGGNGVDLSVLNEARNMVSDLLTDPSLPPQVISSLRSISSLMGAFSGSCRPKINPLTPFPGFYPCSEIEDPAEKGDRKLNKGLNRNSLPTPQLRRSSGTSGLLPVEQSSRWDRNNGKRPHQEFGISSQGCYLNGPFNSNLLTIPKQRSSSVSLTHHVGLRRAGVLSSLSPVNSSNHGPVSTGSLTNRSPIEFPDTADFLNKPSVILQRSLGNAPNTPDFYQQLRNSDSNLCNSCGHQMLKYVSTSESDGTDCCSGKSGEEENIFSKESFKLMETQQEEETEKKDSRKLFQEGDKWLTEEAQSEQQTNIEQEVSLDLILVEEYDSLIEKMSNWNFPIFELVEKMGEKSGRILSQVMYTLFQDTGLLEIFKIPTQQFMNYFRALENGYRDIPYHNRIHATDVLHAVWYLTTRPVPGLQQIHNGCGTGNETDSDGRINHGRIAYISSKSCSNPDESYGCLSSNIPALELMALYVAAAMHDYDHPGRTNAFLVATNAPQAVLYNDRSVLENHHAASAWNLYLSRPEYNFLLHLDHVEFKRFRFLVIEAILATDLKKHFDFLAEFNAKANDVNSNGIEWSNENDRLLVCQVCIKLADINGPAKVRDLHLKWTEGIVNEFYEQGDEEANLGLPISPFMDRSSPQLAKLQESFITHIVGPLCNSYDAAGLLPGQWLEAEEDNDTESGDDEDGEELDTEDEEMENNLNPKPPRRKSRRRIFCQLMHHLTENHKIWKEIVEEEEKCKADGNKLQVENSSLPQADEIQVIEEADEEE

| Structure (SMILES) | IC50 [1] | IC50 [2] | IC50 [3] | IC50 [4] | IC50 [5] | IC50 [6] | IC50 [7] | IC50 [8] | IC50 [9] | Clblood [10] | Fmax [10] | IC50 [11] | IC50 [12] | IC50 [13] | IC50 [14] | IC50 [15] | IC50 [16] | IC50 [17] |
| --- | --- | --- | --- | --- | --- | --- | --- | --- | --- | --- | --- | --- | --- | --- | --- | --- | --- | --- |
| Cc1cc(C2=NNC(=O)OC2)ccc1-c1ccc(F)c(F)c1 [Example 8, 5-(3′,4′-Difluoro-2-methylbiphenyl-4-yl)-3,6-dihydro-2H-1,3,4-oxadiazin-2-one] | 18 nM | 0.21 µM | 6 nM | 42 nM | 50 nM | 16 nM | 0.243 µM | – | – | – | – | – | – | – | – | – | – | – |
| O=C1NN=C(c2ccc(N3CCC(F)(F)CC3)c(F)c2)CO1 [Example 1, 5-[4-(4,4-Difluoropiperidin-1-yl)-3-fluorophenyl]-3,6-dihydro-2H-1,3,4-oxadiazin-2-one] | 3 nM | 0.275 µM | 2 nM | 19 nM | 30 nM | – | 0.173 µM | 19 nM | 89 nM | 4 mL/min/kg | 82% | 20 nM | – | – | – | – | – | – |
| CC(C)(C)CCc1ccc(C2=NNC(=O)OC2)cc1C(F)(F)F [Example 269, 5-[4-(3,3-Dimethylbutyl)-3-(trifluoromethyl)phenyl]-3,6-dihydro-2H-1,3,4-oxadiazin-2-one] | 17 nM | 0.695 µM | 6 nM | – | – | 24 nM | 0.79 µM | – | – | 6.83 mL/min/kg | 69% | 44 nM | 49 nM | 61 nM | 50 nM | 49 nM | 47 nM | 66 nM |
| Cc1cc(C2=NNC(=O)OC2)ccc1-c1ccc(F)cc1 [Example 7, 5-(4′-Fluoro-2-methylbiphenyl-4-yl)-3,6-dihydro-2H-1,3,4-oxadiazin-2-one] | 13 nM | 0.22 µM | 5 nM | 26 nM | 44 nM | – | 0.17 µM | – | – | 5.5 mL/min/kg | 75% | – | – | – | – | – | – | – |
| COCCCc1ccc(C2=NNC(=O)OC2)cc1C(F)(F)F [Example 267, 5-[4-(3-Methoxypropyl)-3-(trifluoromethyl)phenyl]-3,6-dihydro-2H-1,3,4-oxadiazin-2-one] | 5 nM | 0.145 µM | 2 nM | – | – | 7 nM | 0.185 µM | – | – | 4.5 mL/min/kg | 80% | 26 nM | 44 nM | 40 nM | 35 nM | 18 nM | 16 nM | 34 nM |
| O=C1NN=C(c2ccc(N3CCOCC3)c(F)c2)CO1 [Example 4, 5-[3-Fluoro-4-(morpholin-4-yl)phenyl]-3,6-dihydro-2H-1,3,4-oxadiazin-2-one] | 16 nM | 0.203 µM | 7 nM | 40 nM | 47 nM | – | 0.154 µM | – | – | <0.17 mL/min/kg | 100% | – | – | – | – | – | – | – |
